Source: ChEMBL document CHEMBL1137517, “Rational design, synthesis and evaluation of (6aR( *),11bS( *))-1-(4-fluorophenyl)-4-{7-[4-(4-fluorophenyl)-4-oxobutyl]1,2,3,4,6,6a,7,11b,12,12a(RS)-decahydropyrazino[2',1':6,1]pyrido[3,4-b]indol-2-yl}-butan-1-one as a potential neuroleptic agent” (Bioorg Med Chem, 2007)

Assays:
D(1A) dopamine receptor = D(1A) dopamine receptor (Rattus norvegicus, UniProt P18901); experiment: Displacement of [3H]SCH-23390 from dopamine D1 receptor in rat brain; format: tissue-based
Chain of D(1A) dopamine receptor (P18901 whole entry): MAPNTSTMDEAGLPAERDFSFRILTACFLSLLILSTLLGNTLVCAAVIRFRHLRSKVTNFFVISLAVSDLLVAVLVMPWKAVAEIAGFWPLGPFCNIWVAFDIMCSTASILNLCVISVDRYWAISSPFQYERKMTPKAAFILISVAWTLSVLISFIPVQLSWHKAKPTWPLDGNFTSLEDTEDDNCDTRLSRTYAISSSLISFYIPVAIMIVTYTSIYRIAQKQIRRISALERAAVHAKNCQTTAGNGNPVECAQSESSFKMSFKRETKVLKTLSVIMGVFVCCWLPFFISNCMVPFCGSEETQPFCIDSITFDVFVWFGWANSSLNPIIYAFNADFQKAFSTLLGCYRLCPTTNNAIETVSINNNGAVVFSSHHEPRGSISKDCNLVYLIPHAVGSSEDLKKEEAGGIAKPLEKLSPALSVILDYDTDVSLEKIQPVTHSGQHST

Rattus norvegicus [1] = experiment: Blockade of conditioned avoidance response in ip dosed rat; format: functional
Rattus norvegicus [2] = experiment: Blockade of unconditioned avoidance response in ip dosed rat; format: functional
D(2) dopamine receptor = D(2) dopamine receptor (Rattus norvegicus, UniProt P61169); experiment: Displacement of [3H]spiperone from dopamine D2 receptor in rat brain; format: tissue-based
Chain of D(2) dopamine receptor (P61169 whole entry): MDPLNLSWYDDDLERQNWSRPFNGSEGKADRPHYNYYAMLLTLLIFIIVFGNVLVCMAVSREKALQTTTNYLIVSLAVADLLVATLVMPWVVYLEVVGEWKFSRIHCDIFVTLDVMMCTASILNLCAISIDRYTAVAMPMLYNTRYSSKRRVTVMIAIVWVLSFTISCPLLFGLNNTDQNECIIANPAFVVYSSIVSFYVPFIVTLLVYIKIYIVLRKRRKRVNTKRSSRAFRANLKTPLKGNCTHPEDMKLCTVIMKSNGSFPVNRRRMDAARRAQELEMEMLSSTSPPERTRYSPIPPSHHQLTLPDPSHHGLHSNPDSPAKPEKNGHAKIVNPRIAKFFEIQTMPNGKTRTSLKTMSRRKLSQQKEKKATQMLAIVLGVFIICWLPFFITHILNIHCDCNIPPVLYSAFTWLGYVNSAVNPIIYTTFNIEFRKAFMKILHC

[3] = biological target: 5-hydroxytryptamine receptor 2A (Rattus norvegicus, UniProt P14842); experiment: Displacement of [3H]ketanserin from 5HT2A receptor in rat brain; format: tissue-based
Chain of 5-hydroxytryptamine receptor 2A (P14842 whole entry): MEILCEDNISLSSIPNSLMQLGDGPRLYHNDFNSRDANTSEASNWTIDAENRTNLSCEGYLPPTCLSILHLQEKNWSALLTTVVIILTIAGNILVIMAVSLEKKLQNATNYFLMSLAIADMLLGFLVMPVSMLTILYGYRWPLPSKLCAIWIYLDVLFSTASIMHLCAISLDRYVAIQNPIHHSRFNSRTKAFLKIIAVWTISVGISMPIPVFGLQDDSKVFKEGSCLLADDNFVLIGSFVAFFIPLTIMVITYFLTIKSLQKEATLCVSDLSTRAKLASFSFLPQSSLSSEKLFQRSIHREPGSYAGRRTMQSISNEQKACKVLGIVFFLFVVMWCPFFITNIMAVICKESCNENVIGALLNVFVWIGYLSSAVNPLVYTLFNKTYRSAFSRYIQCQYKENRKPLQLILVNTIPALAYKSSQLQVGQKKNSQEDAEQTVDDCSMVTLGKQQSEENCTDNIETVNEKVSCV

Mus musculus [4] = experiment: Reduction of amphetamine-induced hyperactivity in ip dosed mouse; format: functional
Mus musculus [5] = experiment: Antagonism of amphetamine-induced toxicity in ip dosed mouse; format: functional
Rattus norvegicus [6] = experiment: Blockade of secondary conditioned avoidance response in ip dosed rat; format: functional
Mus musculus [7] = experiment: Effect on locomotor activity in ip dosed mouse assessed as motor deficit by rota rod test; format: functional
Rattus norvegicus [8] = experiment: Cataleptic activity in ip dosed rat; format: ADME, organism-based; details: in vivo
Rattus norvegicus [9] = species on record: Rattus norvegicus; experiment: Ratio of ED50 for cataleptic activity in rat to ED50 for conditioned avoidance response in rat; format: functional

Row | SMILES | Ki (D(1A) dopamine receptor) [nM] | ED50 (Rattus norvegicus [1]) [mg/kg] | ED50 (Rattus norvegicus [2]) [mg/kg] | Ki (D(2) dopamine receptor) [nM] | Ki [3] [nM] | ED50 (Mus musculus [4]) [mg/kg] | ED50 (Mus musculus [5]) [mg/kg] | ED50 (Rattus norvegicus [6]) [mg/kg] | ED50 (Mus musculus [7]) [mg/kg] | ED50 (Rattus norvegicus [8]) [mg/kg] | Ratio (Rattus norvegicus [9])
1 | O=C(CCCN1CCN2CC3C(CC2C1)c1ccccc1N3CCCC(=O)c1ccc(F)cc1)c1ccc(F)cc1 (stereo not drawn) | 0.643 | 0.07 | 5.6 | 2250 | 9.35 | 1.71 | 5.75 | 0.01 | 4.33 | 0.88 | 12.6
2 | O=C(CCCN1c2ccccc2C2CC3CNCCN3CC21)c1ccc(F)cc1 (mixture of isomers) | – | – | – | > 100000 | > 100000 | – | – | – | – | – | –
3 | O=C(CCCN1CCN2Cc3[nH]c4ccccc4c3CC2C1)c1ccc(F)cc1 (stereo not drawn) [BIRIPERONE] | 425 | 0.09 | 9.8 | 13.2 | 24 | 0.75 | 1 | 0.04 | 2.55 | 0.86 | 9.5
4 | O=C(CCCN1CCC(O)(c2ccc(Cl)cc2)CC1)c1ccc(F)cc1 [HALOPERIDOL] | – | 0.1 | – | – | – | – | – | 0.04 | – | – | –
5 | O=C(CCCN1CCN2CC3Nc4ccccc4C3CC2C1)c1ccc(F)cc1 (stereo not drawn) | – | – | – | 93.8 | 92.5 | – | – | – | – | – | –
